Series [1] is filed under the species Danio rerio. Put plainly: Teratogenicity in zebrafish embryo at 1 to 30 uM incubated until 5 days post fertilization. In kind it is ADME, organism-based. To be noted: in vivo, 120 h.
For series [2], the species on record is Danio rerio. Put plainly: Induction of apoptosis in zebrafish embryo after 24 to 48 hrs by acridine orange staining based fluorescence microscopy. The format is functional, organism-based.
Series [3] is filed under the species Danio rerio. In words: Teratogenicity in zebrafish embryo incubated until 5 days post fertilization. In kind it is ADME, organism-based. To be noted: in vivo, 120 h.
The species named for series [4] is Danio rerio. In words: Hepatotoxicity in zebrafish embryo at 1 to 30 uM incubated until 7 days post fertilization. The format is organism-based. To be noted: in vivo, 168 h.
The species named for series [5] is Danio rerio. In words: Hepatotoxicity in zebrafish embryo incubated until 7 days post fertilization. To be noted: in vivo, 168 h. In kind it is organism-based.
For series [6], the species on record is Danio rerio. Put plainly: Induction of apoptosis in zebrafish embryo at 30 uM after 24 to 48 hrs by acridine orange staining based fluorescence microscopy. The format is functional, organism-based.
A short description of series [7]: Therapeutic index, ratio of NOAEL to apoptotic EC50 in Zebrafish embryo. In kind it is organism-based, Danio rerio. To be noted: in vivo, read-out: TI.
The species named for series [8] is Danio rerio. In words: Induction of apoptosis in zebrafish embryo at 1 to 3 uM after 24 to 48 hrs by acridine orange staining based fluorescence microscopy. In kind it is functional, organism-based.
For series [9], the species on record is Danio rerio. Put plainly: Teratogenicity in zebrafish embryo at 30 uM incubated until 5 days post fertilization. In kind it is ADME, organism-based. To be noted: in vivo, 120 h.
Series [10] is filed under the species Danio rerio. In words: Teratogenicity in zebrafish embryo at 10 uM incubated until 5 days post fertilization. In kind it is ADME, organism-based. To be noted: in vivo, 120 h.
The species entered for series [11] is Danio rerio. Put plainly: Hepatotoxicity in zebrafish embryo assessed as induction of mortality at 30 uM incubated until 7 days post fertilization. To be noted: in vivo, 168 h. The format is organism-based.
The species named for series [12] is Danio rerio. In words: Induction of apoptosis in zebrafish embryo at 1 to 30 uM after 24 to 48 hrs by acridine orange staining based fluorescence microscopy. The format is functional, organism-based.
For series [13], the species on record is Danio rerio. In words: Hepatotoxicity in zebrafish embryo at 10 uM incubated until 7 days post fertilization. In kind it is organism-based. To be noted: in vivo, 168 h.

Results on five compounds are retold here after ChEMBL document CHEMBL3351682, “NaSH in the construction of thiophene ring fused with N-heterocycles: a rapid and inexpensive synthesis of novel small molecules as potential inducers of apoptosis” (Bioorg Med Chem Lett, 2014).

Active and inactive are the calls of the source. The rule behind the calls is not given here.

On to `Fc1cc(F)cc(-c2cc3nc4ccccc4nc3s2)c1`, for which the Activity result in the series listed under Danio rerio [1] and in the series filed under Danio rerio [4] was “Non-toxic” throughout. It took 10.3 µM to reach a half-maximal effect in the series listed under Danio rerio [2] (EC50). Besides, the NOAEL in the series filed under Danio rerio [3] and in the series filed under Danio rerio [5] was 30 µM in each case. For the same compound, the outcome in the series listed under Danio rerio [6] was Active. Moreover, the selectivity ratio in series [7] is 2.9.

With `Fc1cc(F)cc(-c2cc3nccnc3s2)c1`, the Activity entry in the series listed under Danio rerio [1] and in the series filed under Danio rerio [4] was “Non-toxic” throughout. This compound also yielded an EC50 in the series filed under Danio rerio [2] of 9.82 µM. In addition, the NOAEL in the series filed under Danio rerio [3] and in the series filed under Danio rerio [5] was 30 µM in each case. For the same compound, the outcome in the series filed under Danio rerio [6] was Active. For the same compound, in [7], the selectivity ratio stood at 3.05.

Take `c1ccc(-c2cc3nc4ccccc4nc3s2)cc1`: the result in the series listed under Danio rerio [8] and in the series filed under Danio rerio [6] was Active. Further, the EC50 in the series listed under Danio rerio [2] was determined as 8.5 µM. The NOAEL in the series listed under Danio rerio [3] and in the series filed under Danio rerio [5] was 10 µM throughout. Also, the Activity entry in the series filed under Danio rerio [4] is “Non-toxic”; in the series listed under Danio rerio [9], “Toxic”. In series [7], the selectivity ratio was determined as 1.17.

Turning to `CC(C)(C)c1cc2nc3ccccc3nc2s1`, the Activity result is “Non-toxic” in the series filed under Danio rerio [10]; “Toxic” in the series listed under Danio rerio [11]; “Dose-dependent effect” in the series listed under Danio rerio [12]; “Toxic” in the series filed under Danio rerio [13]; “Toxic” in the series listed under Danio rerio [9]. In the series listed under Danio rerio [2], this compound returned a concentration giving a half-maximal response (EC50) of 4.89 µM. Besides, the no-observed-adverse-effect level (NOAEL) in the series listed under Danio rerio [3] is 3 µM; in the series listed under Danio rerio [5], 1 µM. The outcome in the series filed under Danio rerio [6] was Active. Also, the selectivity ratio in series [7] was 0.2.

`CCCc1cc2nc3ccccc3nc2s1`: the Activity result in the series listed under Danio rerio [1] is “Non-toxic”; in the series filed under Danio rerio [12] it was “Dose-dependent effect”; in the series filed under Danio rerio [4] it was “Non-toxic”. For the same compound, the EC50 in the series filed under Danio rerio [2] worked out at 4.46 µM. In addition, the NOAEL in the series filed under Danio rerio [3] and in the series listed under Danio rerio [5] was 30 µM each time. In addition, the result in the series listed under Danio rerio [6] was Active. Also, the selectivity ratio in series [7] was 6.72.

Usually EC50 stands for the concentration needed to bring the measured effect to its halfway point. A high value points to a need for much substance. The term NOAEL denotes the highest dose or exposure tested at which no adverse effect was seen.
